The source made the active and inactive calls. No rule for the calls is given here.

We go through 4 molecules from PubChem BioAssay AID1259407 (Chemical Carcinogenesis Research Information System (CCRIS), 2018).

This data set has as its system CCRIS mutagenicity, Ames/micronucleus/aberration tests. As to the kind of experiment: CCRIS mutagenicity studies. The conditions noted are these: Test System: AMES SALMONELLA TYPHIMURIUM

For the molecule `CNC(=O)Oc1ccc2c(c1)[C@]1(C)CCN(C)[C@@H]1N2C`, the mutagenic call runs as follows: (Strain/Indicator: TA97, Metabolic Activation: LIVER, S-9 (10%), Method: STANDARD PLATE) “inactive; negative”; (Strain/Indicator: TA97, Metabolic Activation: NONE, Method: STANDARD PLATE) “inactive; negative”; (Strain/Indicator: TA97, Metabolic Activation: S-9, Method: STANDARD PLATE) “inactive; negative”; (Strain/Indicator: TA98, Metabolic Activation: LIVER, S-9 (10%), Method: STANDARD PLATE) “inactive; negative”; (Strain/Indicator: TA98, Metabolic Activation: NONE, Method: STANDARD PLATE) “inactive; negative”; (Strain/Indicator: TA98, Metabolic Activation: S-9, Method: STANDARD PLATE) “inactive; negative”. Also, the mutagenic call by setting is: (Strain/Indicator: TA100, Metabolic Activation: LIVER, S-9 (10%), Method: STANDARD PLATE) “inactive; negative”; (Strain/Indicator: TA100, Metabolic Activation: NONE, Method: STANDARD PLATE) “inactive; negative”; (Strain/Indicator: TA100, Metabolic Activation: S-9, Method: STANDARD PLATE) “inactive; negative”; (Strain/Indicator: TA102, Metabolic Activation: NONE, Method: STANDARD PLATE) “inactive; negative”; (Strain/Indicator: TA102, Metabolic Activation: S-9, Method: STANDARD PLATE) “inactive; negative”; (Strain/Indicator: TA104, Metabolic Activation: LIVER, S-9 (10%), Method: STANDARD PLATE) “inactive; negative”. For the same molecule, the mutagenic call (Strain/Indicator: TA104, Metabolic Activation: NONE, Method: STANDARD PLATE) is “inactive; negative”; the mutagenic call (Strain/Indicator: TA104, Metabolic Activation: S-9, Method: STANDARD PLATE) is “inactive; negative”; the mutagenic call (Strain/Indicator: TA1535, Metabolic Activation: LIVER, S-9 (10%), Method: STANDARD PLATE) is “inactive; negative”; the mutagenic call (Strain/Indicator: TA1535, Metabolic Activation: NONE, Method: STANDARD PLATE) is “inactive; negative”; the mutagenic call (Strain/Indicator: TA1535, Metabolic Activation: S-9, Method: STANDARD PLATE) was “inactive; negative”; the mutagenic call (Strain/Indicator: TA1537, Metabolic Activation: LIVER, S-9 (10%), Method: STANDARD PLATE) was “inactive; negative”. Moreover, the mutagenic call (Strain/Indicator: TA1537, Metabolic Activation: NONE, Method: STANDARD PLATE) is “inactive; negative”; the mutagenic call (Strain/Indicator: TA1537, Metabolic Activation: S-9, Method: STANDARD PLATE) is “inactive; negative”; the mutagenic call (Strain/Indicator: TA1538, Metabolic Activation: LIVER, S-9 (10%), Method: STANDARD PLATE) was “inactive; negative”; the mutagenic call (Strain/Indicator: TA1538, Metabolic Activation: NONE, Method: STANDARD PLATE) is “inactive; negative”; the mutagenic call (Strain/Indicator: TA1538, Metabolic Activation: S-9, Method: STANDARD PLATE) was “inactive; negative”.
On to `Oc1ccc(O)c2ccccc12`, for which the mutagenic call was “active; positive” (Strain/Indicator: TA104, Metabolic Activation: NONE, Method: PREINCUBATION) and “active; positive” (Strain/Indicator: TA2637, Metabolic Activation: RAT, LIVER, S-9, PHENOBARBITAL AND 5,6-BENZOFLAVONE, Method: PREINCUBATION).
Consider `Nc1ccc(Oc2ccc(N)c(Cl)c2)cc1Cl`, for which the mutagenic call (Strain/Indicator: TA98, Metabolic Activation: NONE, Method: PREINCUBATION) is “inactive; negative”; the mutagenic call (Strain/Indicator: TA98, Metabolic Activation: RAT, LIVER, S-9, PCB, Method: PREINCUBATION) was “active; positive”; the mutagenic call (Strain/Indicator: TA100, Metabolic Activation: NONE, Method: PREINCUBATION) is “inactive; negative”; the mutagenic call (Strain/Indicator: TA100, Metabolic Activation: RAT, LIVER, S-9, PCB, Method: PREINCUBATION) is “active; positive”.
Regarding `CCN(CC)CC(=O)Nc1c(C(=O)c2ccccc2F)c(C)nn1C`, the mutagenic call runs as follows: (Strain/Indicator: TA98, Metabolic Activation: RAT, LIVER, S-9, AROCLOR 1254, Method: PREINCUBATION) “active; positive”; (Strain/Indicator: TA98, Metabolic Activation: RAT, LIVER, S-9, AROCLOR 1254, Method: STANDARD PLATE) “inactive; negative”; (Strain/Indicator: TA100, Metabolic Activation: RAT, LIVER, S-9, AROCLOR 1254, Method: PREINCUBATION) “active; positive”; (Strain/Indicator: TA100, Metabolic Activation: RAT, LIVER, S-9, AROCLOR 1254, Method: STANDARD PLATE) “inactive; negative”.
